According to patent publication US11390604B2 (Hoffmann-La Roche Inc., priority 2019, dated 2022):
Where a name gives a salt, the structure may show the parent alone.

system: Acinetobacter baumannii ATCC 17961; assay: Antimicrobial susceptibility testing: 90% growth inhibitory concentration (IC90) determination; format: cell-based; settings: ATCC17961, Acinetobacter baumannii ATCC 17961, Iso-Sensitest broth, read-out: ATCC 17961 IC90
Procedure, shortened: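 Growth was followed kinetically by OD600 at 20-min intervals for 16 h at 35±2 °C, with ~5×10^5 CFU/ml in Iso-Sensitest broth. Compounds were tested as twofold dilutions (e.g. 50–0.097 μM final). The concentration giving 90% inhibition of log-phase growth was reported.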

| IC90 | SMILES |
| --- | --- |
| 263 nM | Cn1c(-c2cn(C3CC3)nc2C(F)(F)F)cnc1C(=O)Nc1ccc(C(=O)N2CCN(C(=O)[C@@H]3CCNC3)CC2)c(Cl)c1 [Example 229, (R)-N-(3-chloro-4-(4-(pyrrolidine-3-carbonyl)piperazine-1-carbonyl)phenyl)-5-(1-cyclopropyl-3-(trifluoromethyl)-1H-pyrazol-4-yl)-1-methyl-1H-imidazole-2-carboxamide hydrochloride] |
| 266 nM | Cn1c(-c2cn(C3CC3)nc2C(F)(F)F)cnc1C(=O)Nc1ccc(C(=O)N2CCN(C(=O)[C@@H]3CC[C@@H](N)C3)CC2)c(Cl)c1 [Example 230, N-(4-(4-((1R,3R)-3-aminocyclopentane-1-carbonyl)piperazine-1-carbonyl)-3-chlorophenyl)-5-(1-cyclopropyl-3-(trifluoromethyl)-1H-pyrazol-4-yl)-1-methyl-1H-imidazole-2-carboxamide hydrochloride] |
| 267 nM | Cn1c(-c2cn(C3CC3)nc2C(F)(F)F)cnc1C(=O)Nc1ccc(C(=O)N2CCN(C(=O)[C@H]3CC[C@H](N)CC3)CC2)c(Cl)c1 [Example 231, N-[4-[4-(4-aminocyclohexanecarbonyl)piper-azine-1-carbonyl]-3-chlorophenyl]-5-[1-cyclopropyl-3-(trifluoromethyl)pyrazol-4-yl]-1-methylimidazole-2-carboxamide;hydrochloride] |
| 267 nM | Cn1c(-c2cn(C3CC3)nc2C(F)(F)F)cnc1C(=O)Nc1ccc(C(=O)N2CCN(C(=O)N[C@@H]3CC[C@@H](N)C3)CC2)c(Cl)c1 [Example 232, N-((1R,3R)-3-aminocyclopentyl)-4-(2-chloro-4-(5-(1-cyclopropyl-3-(trifluoromethyl)-1H-pyrazol-4-yl)-1-methyl-1H-imidazole-2-carboxamido)benzoyl)piperazine-1-carboxamide formate] |
| 267 nM | Cn1c(-c2cn(C3CC3)nc2C(F)(F)F)cnc1C(=O)Nc1ccc(C(=O)N2CCN(C(=O)NC3CNC3)CC2)c(Cl)c1 [Example 233, N-(azetidin-3-yl)-4-[2-chloro-4-[[5-[1-cyclopropyl-3-(trifluoromethyl)pyrazol-4-yl]-1-methyl-imidazole-2-carbonyl]amino]benzoyl]pipera-zine-1-carboxamide; formic acid] |
| 268 nM | C=C(C)Cn1cc(-c2cnc(C(=O)Nc3ccc(C(=O)N[C@H]4C[C@@H](N)C4)c(Cl)c3)n2C)c(C(F)(F)F)n1 [Example 234, rac-N-(4-(((1s,3s)-3-aminocyclobutyl)carbamoyl)-3-chlorophenyl)-1-methyl-5-(1-(2-methylallyl)-3-(trifluoromethyl)-1H-pyrazol-4-yl)-1H-imidazole-2-carboxamide hydrochloride] |
| 268 nM | Cn1c(-c2cn(CC(F)F)nc2C(F)(F)F)cnc1C(=O)Nc1ccc(C(=O)NC2C3CN(C(=O)C4CCNCC4)CC32)c(Cl)c1 (centres unmarked) [Example 235, N-(3-chloro-4-((3-(piperidine-4-carbonyl)-3-azabicyclo[3.1.0]hexan-6-yl)carbamoyl)phenyl)-5-(1-(2,2-difluoroethyl)-3-(trifluoromethyl)-1H-pyrazol-4-yl)-1-methyl-1H-imidazole-2-carboxamide formate] |
| 270 nM | Cn1c(-c2cn(C3CC3)nc2C(F)(F)F)cnc1C(=O)Nc1ccc(C(=O)N2CCN(C(=O)NC3CCNC3)CC2)c(Cl)c1 (centres unmarked) [Example 236, 4-[2-chloro-4-[[5-[1-cyclopropyl-3-(trifluoromethyl)pyrazol-4-yl]-1-methylimidazole-2-carbonyl]amino]benzoyl]-N-pyrrolidin-3-ylpiperazine-1-carboxamide;formic acid] |
| 273 nM | CCn1cc(-c2cnc(C(=O)Nc3ccc(C(=O)N4CCC(CCN)CC4)c(Cl)c3)n2C)c(C(F)(F)F)n1 [Example 239, N-(4-(4-(2-aminoethyl)piperidine-1-carbonyl)-3-chlorophenyl)-5-(1-ethyl-3-(trifluoromethyl)-1H-pyrazol-4-yl)-1-methyl-1H-imidazole-2-carboxamide hydrochloride] |
| 274 nM | Cn1c(-c2cn(C3CC3)nc2C(F)(F)F)cnc1C(=O)Nc1ccc(C(=O)N2CCN(C(=O)N[C@H]3C[C@@H](N)C3)CC2)c(Cl)c1 [Example 240, rac-N-((1s,3s)-3-aminocyclobutyl)-4-(2-chloro-4-(5-(1-cyclopropyl-3-(trifluoromethyl)-1H-pyrazol-4-yl)-1-methyl-1H-imidazole-2-carboxamido)benzoyl)piperazine-1-carboxamide formate] |
| 281 nM | Cn1c(-c2cn(Cc3ccccc3)nc2C(F)(F)F)cnc1C(=O)Nc1ccc(C(=O)N2CCN(C(=O)C3CCNCC3)CC2)c(Cl)c1 [Example 241, 5-(1-benzyl-3-(trifluoromethyl)-1H-pyrazol-4-yl)-N-(3-chloro-4-(4-(piperidine-4-carbonyl)piperazine-1-carbonyl)phenyl)-1-methyl-1H-imidazole-2-carboxamide hydrochloride] |
| 283 nM | C#CCn1cc(-c2cnc(C(=O)Nc3ccc(C(=O)NCCOCCN)c(CC)c3)n2C)c(C(F)(F)F)n1 [Example 242, N-[4-[2-(2-aminoethoxy)ethylcarbamoyl]-3-ethyl-phenyl]-1-methyl-5-[1-prop-2-ynyl-3-(trifluoromethyl)pyrazol-4-yl]imidazole-2-carboxamide; formic acid] |
| 286 nM | Cn1c(-c2cn(C3CC3)nc2C(F)(F)F)cnc1C(=O)Nc1ccc(C(=O)N2CCN(C(=O)[C@@H]3CCC[C@@H]3N)CC2)c(Cl)c1 [Example 243, N-(4-(4-((1R,2S)-2-aminocyclopentane-1-carbonyl)piperazine-1-carbonyl)-3-chlorophenyl)-5-(1-cyclopropyl-3-(trifluoromethyl)-1H-pyrazol-4-yl)-1-methyl-1H-imidazole-2-carboxamide hydrochloride] |
| 287 nM | Cn1c(-c2cn(CC(F)F)nc2C(F)(F)F)cnc1C(=O)Nc1ccc(S(=O)(=O)N2CCNCC2)cc1 [Example 244, 5-(1-(2,2-difluoroethyl)-3-(trifluoromethyl)-1H-pyrazol-4-yl)-1-methyl-N-(4-(piperazin-1-ylsulfonyl)phenyl)-1H-imidazole-2-carboxamide hydrochloride] |
| 288 nM | C#CCn1cc(-c2cnc(C(=O)Nc3ccc(C(=O)NC4C5CN(C(=O)C6CCNCC6)CC54)c(Cl)c3)n2C)c(C(F)(F)F)n1 (centres unmarked) [Example 245, N-(3-chloro-4-((3-(piperidine-4-carbonyl)-3-azabicyclo[3.1.0]hexan-6-yl)carbamoyl)phenyl)-1-methyl-5-(1-(prop-2-yn-1-yl)-3-(trifluoromethyl)-1H-pyrazol-4-yl)-1H-imidazole-2-carboxamide formate] |
| 293 nM | Cn1c(-c2cn(C3CC3)nc2C(F)(F)F)cnc1C(=O)Nc1ccc(C(=O)N2CCN(C(=O)C[C@H]3CCNC3)CC2)c(Cl)c1 [Example 246, (R)-N-(3-chloro-4-(4-(2-(pyrrolidin-3-yl)acetyl)piperazine-1-carbonyl)phenyl)-5-(1-cyclopropyl-3-(trifluoromethyl)-1H-pyrazol-4-yl)-1-methyl-1H-imidazole-2-carboxamide hydrochloride] |
| 295 nM | Cn1c(-c2cn(C3CC3(F)F)nc2C(F)(F)F)cnc1C(=O)Nc1ccc(C(=O)NCCCCCN)c(Cl)c1 (centres unmarked) [Example 247, N-(4-((5-aminopentyl)carbamoyl)-3-chlorophenyl)-5-(1-(2,2-difluorocyclopropyl)-3-(trifluoromethyl)-1H-pyrazol-4-yl)-1-methyl-1H-imidazole-2-carboxamide] |
| 297 nM | Cn1c(-c2cn(C3CC3(F)F)nc2C(F)(F)F)cnc1C(=O)Nc1ccc(C(=O)NC2[C@H]3CN(C(=O)NC(CN)CCl)C[C@@H]23)c(Cl)c1 (stereo partly drawn) [Example 248, cis-N-(1-amino-3-chloropropan-2-yl)-6-[[2-chloro-4-[[5-[1-(2,2-difluorocyclopropyl)-3-(trifluoromethyl)pyrazol-4-yl]-1-methylimidazole-2-carbonyl]amino]benzoyl]amino]-3-azabicyclo[3.1.0]hexane-3-carboxamide, formate salt] |
| 300 nM | Cn1c(-c2cn(C3CC3)nc2C(F)(F)F)cnc1C(=O)Nc1ccc(C(=O)N2CCC3(CCNCC3)CC2)c(Cl)c1 [Example 249, N-(3-chloro-4-(3,9-diazaspiro[5.5]undecane-3-carbonyl)phenyl)-5-(1-cyclopropyl-3-(trifluoromethyl)-1H-pyrazol-4-yl)-1-methyl-1H-imidazole-2-carboxamide hydrochloride] |
| 302 nM | Cn1c(-c2cn(C3CC3)nc2C(F)(F)F)cnc1C(=O)Nc1ccc(C(=O)N2CCN(C(=O)[C@H]3CCCN3)CC2)c(Cl)c1 [Example 250, (R)-N-(3-chloro-4-(4-prolylpiperazine-1-carbonyl)phenyl)-5-(1-cyclopropyl-3-(trifluoromethyl)-1H-pyrazol-4-yl)-1-methyl-1H-imidazole-2-carboxamide hydrochloride] |
| 306 nM | Cn1c(-c2cn(CCCl)nc2C(F)(F)F)cnc1C(=O)Nc1ccc(C(=O)N2CCN(C(=O)NC3CNC3)CC2)c(Cl)c1 [Example 251, N-(azetidin-3-yl)-4-[2-chloro-4-[[5-[1-(2-chloroethyl)-3-(trifluoromethyl)pyrazol-4-yl]-1-methyl-imidazole-2-carbonyl]amino]benzoyl]pipera-zine-1-carboxamide] |
| 308 nM | Cn1c(-c2cn(C3CC3)nc2C(F)(F)F)cnc1C(=O)Nc1ccc(C(=O)N2CCN(C(=O)CCN)CC2)c(Cl)c1 [Example 252, N-(4-(4-(3-aminopropanoyl)piperazine-1-carbonyl)-3-chlorophenyl)-5-(1-cyclopropyl-3-(trifluoromethyl)-1H-pyrazol-4-yl)-1-methyl-1H-imidazole-2-carboxamide hydrochloride] |
| 309 nM | Cn1c(-c2cn(CC#N)nc2C(F)(F)F)cnc1C(=O)Nc1ccc(C(=O)N[C@H]2C[C@@H](NC(=O)[C@@H]3CCNC3)C2)c(Cl)c1 [Example 253, N-[3-chloro-4-[[3-[[(3R)-pyrrolidine-3-carbonyl]amino]cyclobutyl]car-bamoyl]phenyl]-5-[1-(cyanomethyl)-3-(trifluoromethyl)pyrazol-4-yl]-1-methyl-imidazole-2-carboxamide; formic acid] |
